This note sets out measurements from patent publication US20220249710A1, “BIOREDUCTIVELY-ACTIVATED COMPOUNDS, THEIR PRODRUGS, RADIOPHARMACEUTICALS, THE COMPOSITIONS, AND THEIR APPLICATIONS IN MULTIMODAL THERANOSTIC MANAGEMENT OF HYPOXIA DISEASES INCLUDING CANCER” (The Governors of the University of Alberta, priority 2017, published 2022).

The series has as its system FaDu tumor. The series can be described thus: In vivo radiosensitization therapy of FaDu tumor-bearing NuNu mice. Particulars: bi-flank FaDu tumor-bearing NuNu mice, single chemical dose (20% of MTD) followed by single 10 Gy external beam radiotherapy. From the text: In very brief, the evaluation of radiosensitization potential of IAZA using a single chemical dose (20% of the maximum tolerated dose; MTD) and a single radiation dose (10 Gy) was done in ‘bi-flank FaDu tumor-bearing NuNu mice was done. Benefits of IAZA-bestowed radiosensitization therapy effects were compared with the conventional radiotherapy alone (a single 10 Gy dose).
FIGS. 28 and 29 depict IN VIVO RADIOSENSITIZATION THERAPY OF FaDu TUMOR BEARING NU-NU MICE USING A SINGLE CHEMICAL DOSE OF IAZA (20% of MTD) AND 10 Gy RADIATION DOSE (Green stain indicates the hypoxic region in tumor)

The mark [1] stands for this setting: compared with radiotherapy alone.

The structures appear in SMILES notation.

Consider `O=[N+]([O-])c1nccn1[C@@H]1O[C@H](C[125I])[C@@H](O)[C@@H]1O` [IAZA], for which the morbidity entry was “no morbidity”. Under setting [1], the “hypoxic content of the tumor” value is recorded as “Reduction in hypoxic content of the tumor” and the tumor size result is recorded as “tumor size reduction”.
